Activity calls are given as the source filed them. No rule for the calls is given here.
Tested on: Broad 7084-01 inhibitor HTS, set 2
Assay: inhibitors in Broad screen 7084-01, set 2 (AID 977613);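 also: host cells are infected with parasite promastigotes that become internalized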

| SMILES | active concentration |
| --- | --- |
| O=C(Cc1ccccc1)N1C[C@H]2[C@@H](c3ccccc31)[C@@H](CO)N2C(=O)c1cccc(F)c1 | > 10 µM (inactive) |
| O=C(c1cccc(F)c1)N1CC2(C1)[C@H](c1ccccc1)[C@@H](CO)N2C(=O)C1CCCCC1 | > 10 µM (inactive) |
| O=C(C[C@@H]1CC[C@H]2[C@@H](COC[C@@H](O)CN2C(=O)c2ccc(F)cc2)O1)NCc1cccc(F)c1 | > 10 µM (inactive) |
| CN(C)CC(=O)N1CC2(C1)[C@@H](c1ccccc1)[C@@H](CO)N2C(=O)C1CC1 | > 10 µM (inactive) |
| Cc1ccccc1S(=O)(=O)N1CCCCN2[C@H](C1)[C@H](c1ccc(C#CCN(C)C)cc1)[C@@H]2CO | > 10 µM (inactive) |
| COc1ccccc1C(=O)Nc1ccc2c(c1)C(=O)N(C)[C@@H]1CC[C@H](CC(=O)NCCc3ccncc3)O[C@@H]1CO2 | > 10 µM (inactive) |
| COc1ccccc1NC(=O)N1CC(=O)N2[C@H](CO)[C@@H](c3ccc(-c4cccc(C)c4)cc3)[C@@H]2C1 | > 10 µM (inactive) |
| COc1ccc(-c2ccccc2[C@H]2[C@@H](C#N)N(C(=O)NC3CCCCC3)[C@H]2CO)cc1 | > 10 µM (inactive) |
| OC[C@@H]1[C@H](c2ccc(C3=CCCC3)cc2)[C@H]2CN(Cc3ccncc3)CCCCN12 | > 10 µM (inactive) |
| O=C(C[C@@H]1CC[C@@H]2[C@H](COC[C@@H](O)CN2Cc2nccs2)O1)NCc1ccccc1 | > 10 µM (inactive) |
| O=C1CNC[C@@H]2[C@H](c3ccc(-c4ccccc4F)cc3)[C@@H](CO)N12 | > 10 µM (inactive) |
| CC(C)C#Cc1ccc([C@H]2[C@@H](CO)N3C(=O)CN(C(=O)Cc4ccccc4)C[C@H]23)cc1 | > 10 µM (inactive) |
| COc1ccc(C#Cc2ccc3c(c2)[C@H]2[C@H](CCN2C(=O)Nc2ccc(C(F)(F)F)cc2)[C@@H](CO)N3C)cc1 | > 10 µM (inactive) |
| N#C[C@@H]1[C@@H](c2ccccc2-c2cccc(F)c2)[C@@H](CO)N1C(=O)C1CC1 | > 10 µM (inactive) |
| CC(C)(O)C#Cc1ccc([C@@H]2[C@H](CO)N3CCCCN(S(C)(=O)=O)C[C@@H]23)cc1 | > 10 µM (inactive) |
| CC(C)C#Cc1ccc([C@H]2[C@@H](CO)N3C(=O)CN(C(=O)Cc4ccccc4)C[C@@H]23)cc1 | > 10 µM (inactive) |
| CC(C)CC#Cc1ccc([C@H]2[C@@H](CO)N3C(=O)CN(S(=O)(=O)c4cccc(F)c4)C[C@@H]23)cc1 | > 10 µM (inactive) |
| O=C(C[C@@H]1CC[C@H]2[C@@H](COC[C@H](O)CN2Cc2ccc3c(c2)OCO3)O1)Nc1ccccc1 | > 10 µM (inactive) |
| O=C(c1ccccn1)N1CC2(C1)[C@H](c1ccccc1)[C@@H](CO)N2Cc1ccccc1 | > 10 µM (inactive) |
| CCC(=O)N1[C@H](CO)[C@@H](c2ccc(/C=C/c3ccccc3)cc2)C12CN(S(C)(=O)=O)C2 | > 10 µM (inactive) |
| Cc1ccccc1S(=O)(=O)N1CCCCN2[C@H](CO)[C@@H](c3ccc(C#CCN(C)C)cc3)[C@H]2C1 | > 10 µM (inactive) |
| CCCC#Cc1ccc([C@@H]2[C@H]3CN(C(=O)c4cccnc4)CC(=O)N3[C@H]2CO)cc1 | > 10 µM (inactive) |
| COc1ccccc1-c1ccccc1[C@H]1[C@@H](C#N)N(C(=O)CN(C)C)[C@@H]1CO | > 10 µM (inactive) |
| CCCNC(=O)N1[C@@H](CO)[C@H](c2ccccc2)C12CN(C(=O)C1CCCCC1)C2 | > 10 µM (inactive) |
| CCCC#Cc1ccc([C@H]2[C@H]3CN(C(=O)CN4CCOCC4)CC(=O)N3[C@H]2CO)cc1 | > 10 µM (inactive) |
| C/C=C/c1ccccc1[C@H]1[C@@H](CO)N(C(=O)NC2CCCCC2)[C@H]1C#N | > 10 µM (inactive) |

| SMILES | active concentration |
| --- | --- |
| CN1C[C@@H]2[C@H](c3ccccc31)[C@H](CO)N2Cc1ccccc1Cl | > 10 µM (inactive) |
| C[C@H](NC(=O)[C@H]1[C@H](CO)[C@H]2Cn3c(ccc(-c4ccncc4)c3=O)[C@H]2N1C)c1ccccc1 | > 10 µM (inactive) |
| O=C(C[C@H]1CC[C@@H]2[C@H](COC[C@@H](O)CN2Cc2ccccc2)O1)NCCc1ccccc1 | > 10 µM (inactive) |
| O=S(=O)(c1cccs1)N1CCCCN2[C@H](C1)[C@H](c1ccc(/C=C/c3ccccc3)cc1)[C@@H]2CO | > 10 µM (inactive) |
| C/C=C/c1ccc([C@@H]2[C@H](CO)N(C(=O)c3cnccn3)C23CN(C(C)=O)C3)cc1 | > 10 µM (inactive) |
| O=C(NCc1cc(F)cc(F)c1)[C@@H]1[C@@H](CO)[C@@H]2Cn3c(cccc3=O)[C@H]1N2 | > 10 µM (inactive) |
| CN(C)C(=O)c1cccc(-c2ccc([C@H]3[C@H](CO)N4CCCCN(CC5CCOCC5)C[C@@H]34)cc2)c1 | > 10 µM (inactive) |
| CS(=O)(=O)N1CC2(C1)[C@@H](c1ccccc1)[C@@H](CO)N2Cc1ccccn1 | > 10 µM (inactive) |
| CCC(=O)N1[C@H](CO)[C@H](c2ccccc2)C12CN(C(=O)c1ccc3c(c1)OCO3)C2 | > 10 µM (inactive) |
| C/C=C/c1ccccc1[C@@H]1[C@@H](CO)N(C(=O)Cc2ccccn2)[C@H]1C#N | > 10 µM (inactive) |
| CN1[C@@H]2CNc3ccccc3[C@@H]2[C@@H]1CO | > 10 µM (inactive) |
| CS(=O)(=O)N1C[C@H](O)COC[C@@H]2O[C@H](CC(=O)NCc3ccc(-c4ccccc4)cc3)CC[C@H]21 | > 10 µM (inactive) |
| C[C@@H](NC(=O)[C@@H]1[C@@H](CO)[C@@H]2Cn3c(cccc3=O)[C@H]1N2CCC(F)(F)F)c1ccccc1 | > 10 µM (inactive) |
| COc1cccc(C#Cc2ccc([C@H]3[C@@H](CO)N4C(=O)CN(C(=O)Cc5cccnc5)C[C@H]34)cc2)c1 | > 10 µM (inactive) |
| N#C[C@@H]1[C@@H](c2ccccc2-c2ccccc2F)[C@@H](CO)N1C(=O)C1CCC1 | > 10 µM (inactive) |
| CCCNC(=O)N1CC(=O)N2[C@H](CO)[C@H](c3ccc(C#CCC4CCCC4)cc3)[C@@H]2C1 | > 10 µM (inactive) |
| CCC(=O)N1CC(=O)N2[C@H](C1)[C@@H](c1ccc(-c3ccc(C#N)cc3)cc1)[C@@H]2CO | > 10 µM (inactive) |
| O=C(C[C@H]1CC[C@H]2[C@@H](COC[C@H](O)CN2C(=O)Nc2cc(Cl)cc(Cl)c2)O1)NCC1CCCCC1 | > 10 µM (inactive) |
| O=C(Nc1cccc(F)c1)N1C[C@@H]2[C@H](c3ccccc31)[C@@H](CO)N2C(=O)Cc1ccccn1 | > 10 µM (inactive) |
| O=S(=O)(c1ccc(F)cc1)N1C[C@H]2[C@@H](c3ccccc31)[C@H](CO)N2Cc1ccc2c(c1)OCO2 | > 10 µM (inactive) |
| O=C(C[C@@H]1CC[C@H]2[C@@H](COC[C@H](O)CN2CC2CCOCC2)O1)NCC1CCCCC1 | > 10 µM (inactive) |
| CC(C)C#Cc1ccc([C@@H]2[C@@H](CO)N3C(=O)CN(C(=O)Cc4ccccc4)C[C@H]23)cc1 | > 10 µM (inactive) |
| O=C(C1CCC1)N1CC2(C1)[C@H](c1ccccc1)[C@H](CO)N2C(=O)c1ccccn1 | > 10 µM (inactive) |
| CC(C)NC(=O)N1[C@H](CO)[C@@H](c2ccccc2-c2ccc(F)cc2)[C@@H]1C#N | > 10 µM (inactive) |
| O=C(CC1CC1)N1CC(=O)N2[C@H](CO)[C@H](c3ccc(C#Cc4cccc(F)c4)cc3)[C@H]2C1 | > 10 µM (inactive) |

Reference: PubChem BioAssay AID977613 (Broad Institute, 2014)
